Measurements from publication PMC4147587, “Synthesis and Analgesic Effects of μ-TRTX-Hhn1b on Models of Inflammatory and Neuropathic Pain” (Toxins, 2014).
Entries after “also recorded” stand apart in the source; their conditions may differ. Read-outs that look alike come from different tables or passages of the source.

Tests used:
[1] = system: SNI-induced mechanical allodynia in rats; format: in vivo, rat (Sprague-Dawley); settings: for withdrawal threshold to von Frey hair: 200 μg/kg i.p., mean ± SEM, n = 6
Protocol: The spared nerve injury was produced as described previously by Decosterd and Woolf. The rats (male, weighing 180–220 g) were anesthetized with ketamine (300 mg/kg) and placed on a pad. Aseptic techniques were used, and the sciatic nerve and its three terminal branches, including the sural, common peroneal and tibial nerves, were exposed, ligated and transected. Muscle and skin were closed with 4-0 polydiaxone and wound clips. Sham controls involved the exposure of the sciatic nerve and its branches without any lesion.
Allodynia was assessed 3 days after SNI surgery, and only rats that developed allodynia, as defined by a significant decrease in their mechanical threshold using von Frey filament, were used. Tactile allodynia was assessed with calibrated von Frey filaments (Stoelting, Wood Dale, IL, USA) using an up-down paradigm. Mechanical sensitivity was determined by applying a series of twenty calibrated von Frey filaments (0.008–2 g, 2–60 g) to the plantar aspect of the left hind paw. […] A response was indicated by brisk withdrawal of the hind paw.

mice and rats = experiment: observation of death and abnormal behaviors in the pain tests; format: in vivo
[2] = system: Nav1.2, Nav1.3, Nav1.4, Nav1.5, Nav1.7; settings: reference not given; cited from earlier work
[3] = system: formalin-induced pain behaviors in rats; experiment: formalin-induced inflammatory rat model; format: in vivo, rat (Sprague-Dawley); settings: for pain score over the 40 min period: mean ± SEM, saline 569.2 ± 43.5 s
Protocol: Acute and chronic nociceptive responses were measured using the rat paw formalin test as descried by Dubission and modified by Malmberg. Adult Sprague-Dawley rats (male, weighing 180–220 g) were used for this behavioral test. During the test, each rat was placed into open polyvinyl cages (30 cm × 40 cm × 30 cm) and at least 30 min before administration of the toxin. All agents were administered 30 min prior to s.c. intraplantar formalin injection. A volume of 50 μL formalin (5%) solution was used as previously described and injected into the plantar surface of one hind paw. Lifting, favoring, licking, shaking and flinching of the injected paw were recorded as nociceptive responses. The total time of the nociceptive response was measured every 5 min and […] (mean ± SEM). Recording of nociceptive behavior commenced immediately after formalin injection and was continued for 40 min.

[4] = system: motor coordination of rats (latency to fall off the rotarod); format: in vivo, rat (Sprague-Dawley); settings: vs baseline, n = 6
Protocol: Motor activity was assessed using a rotarod apparatus for rats (Coulbourn Instruments, Lehigh Valley, PA, USA). The rotarod might be set at any speed from 0 to 50 rpm. For motor coordination assessment, rats were trained for 2 days by walking them each day on an accelerating rotarod from 4 to 40 rpm for 10 min. […] Motor performance was considered as the latency to fall off the rotarod apparatus determined from the mean time in three trials for each rat at each time.

[5] = system: neuronal TTX-S VGSCs in rat dorsal root ganglion (DRG) cells; settings: cited from earlier work
Text: μ-TRTX-Hhn1b (HNTX-IV) is a 35-residue peptide from tarantula Ornithoctonus hainana (Haplopelma hainanum) venom. The amino acid sequence is […]. The peptide amidated at its C-terminal has a high proportion of basic residues and is crosslinked by three disulfide bonds. […] Therefore, the rotarod latency test was used to access the motor side effects of μ-TRTX-Hhn1b in rats.

[6] = system: acetic acid-induced abdominal constriction responses in mice; format: in vivo, mouse (ICR); settings: 15 min before acetic acid, 30 min count, n = 6
Protocol: The abdominal constriction responses induced by intraperitoneal (i.p.) injection of 0.2 mL acetic acid (0.8%), including contraction of the abdominal muscle and stretching of the hind limbs, were performed according to procedures described by Collier et al.. Mice (male, weighing 20–25 g) were pre-treated with the test samples dissolved in saline by intraperitoneal (i.p.) injection for 15 min prior to acetic acid injection. Control animals received the same volume of vehicle (saline: 0.9% sodium chloride solution). After the challenge, mice were individually placed into open polyvinyl cages (30 cm × 40 cm × 30 cm), and the abdominal constriction responses were counted cumulatively during 30 min, which was represented as the sum of constriction (S). The inhibition of pain responses was calculated by the equation as follows: inhibition of pain responses % = (Ssaline − Sdrug)/Ssaline per animal. One hundred percent corresponds to complete reversal of pain, equivalent to the non-injury value, and 0% corresponds to the value from the saline group.

CC[C@H](C)[C@H](NC(=O)[C@H](CCC(=O)O)NC(=O)[C@H](Cc1ccc(O)cc1)NC(=O)[C@H](CCCCN)NC(=O)[C@@H]1CSSC[C@@H]2NC(=O)[C@H](CCC(N)=O)NC(=O)[C@H](CC(=O)O)NC(=O)[C@H](CC(N)=O)NC(=O)[C@H](CO)NC(=O)[C@@H]3CCCN3C(=O)[C@H](CC(N)=O)NC(=O)[C@@H]3CSSC[C@H](NC(=O)[C@H](C(C)C)NC(=O)[C@H](CC(C)C)NC(=O)[C@H](CC(N)=O)NC(=O)[C@H](CO)NC(=O)[C@H](CO)NC(=O)[C@H](CCCCN)NC(=O)[C@H](CSSC[C@H](NC(=O)[C@@H](N)CCC(=O)O)C(=O)N[C@@H](CC(C)C)C(=O)NCC(=O)N[C@@H](Cc4ccccc4)C(=O)NCC(=O)N[C@@H](CCCCN)C(=O)NCC(=O)N3)NC2=O)C(=O)N[C@@H](CO)C(=O)N[C@@H](CCCNC(=N)N)C(=O)N[C@@H](CCCCN)C(=O)N[C@@H](Cc2c[nH]cn2)C(=O)N[C@@H](CCCNC(=N)N)C(=O)N[C@@H](Cc2c[nH]c3ccccc23)C(=O)N1)C(N)=O [μ-TRTX-Hhn1b]
reversal of SNI-induced mechanical allodynia ([1]; 50 µg/kg, 100 µg/kg or 200 µg/kg i.p., n = 6 per group): depressed in a dose-dependent manner; also recorded: significantly reversed SNI-induced allodynia
withdrawal threshold to von Frey hair ([1]; 60 min after injection, saline 1.4 ± 0.4 g, p < 0.01): 8.8 ± 0.9 g
withdrawal threshold to von Frey hair ([1]; 100 min after injection, p < 0.05): 4.0 ± 0.6 g
duration of antinociceptive effect ([1]; i.p.): more than 100 min
duration of antinociceptive effect relative to mexiletine ([1]; i.p.): about two-fold longer than that of mexiletine
side effects (mice and rats; 0.2 mg/kg): inactivity and paralysis
abnormal behaviors (mice and rats; highest dose, some mice and rats): inactivity and paralysis, were observed in some mice and rats
animal death (mice and rats; in the three pain tests / all tests): no animal death was observed; also recorded: no animal death occurred in all tests
sensitivity of Nav1.7 relative to other channels [2]: Nav1.7 is the most sensitive to μ-TRTX-Hhn1b
pain score over the 40 min period ([3]; 50 µg/kg i.p., n = 6, p < 0.05): 458.5 ± 59.9 s
pain score over the 40 min period ([3]; 100 µg/kg i.p., n = 6, p < 0.01): 346.0 ± 46.2 s
pain score over the 40 min period ([3]; 200 µg/kg i.p., n = 6, p < 0.01): 199.8 ± 32.6 s
antinociceptive activity compared with morphine ([3]; 200 µg/kg peptide vs 100 µg/kg morphine, i.p.): antinociceptive activity similar to 100 µg/kg of morphine
effect on pain responses, early phase ([3]; early phase (0–5 min), 50, 100 or 200 µg/kg i.p.): not in the early phases; also recorded: little effect
suppression of pain behaviors, late phase ([3]; late phase (15–30 min), 50, 100 or 200 µg/kg i.p.): dose-dependent suppression of pain behaviors; also recorded: significantly inhibited
latency to fall off the rotarod ([4]; 0.1 mg/kg, 30 min and 90 min after administration): no significant change in latencies to fall off the rotarod
latency to fall off the rotarod ([4]; 0.2 mg/kg, 30 min after administration, p < 0.05): significantly (p < 0.05) reduced latencies
latency to fall off the rotarod ([4]; 0.2 mg/kg, 90 min after administration): not at 90 min
inhibition of other TTX-S VGSCs ([5]; at a high concentration, reference not given): also inhibits other TTX-S VGSCs in rat DRG cells at a high concentration
inhibition of neuronal TTX-S VGSCs [5]: specifically inhibits the neuronal TTX-S VGSCs in rat dorsal root ganglion (DRG) cells
inhibition of pain responses (abdominal constriction) ([6]; 25.0 μg/kg i.p., p < 0.05): 25.2%
inhibition of pain responses (abdominal constriction) ([6]; 100 μg/kg i.p., p < 0.01): 55.6%
